US8556817B2, “Non-invasive methods for determining the cardiovascular status of an individual” (priority 2005, dated 2013)
Marks after values point to notes of the source that are not given here.

Columns and labels:
[1] = Carotid artery wall layer thickness by non-invasive high-frequency ultrasound, postmenopausal estrogen users vs age-matched nonusers; assay type: in vivo, women
Description: Any artery within the focus depth of the selected measuring equipment that can give information of the separate thicknesses of the artery intima layer and optionally the artery media layer may be used. In one embodiment, the thickness of the artery intima layer and optionally the artery media layer is measured in a superficial artery. Examples of superficial arteries include, but are not limited to, carotid, femoral, radialis, cubital, temporal, popliteal, or dorsalis pedis arteries. Depending on the artery which is selected for measurement, one skilled in the art will appreciate the various non-invasive locations on the individual in which the artery layer thickness may be measured. In one embodiment, the artery is a carotid artery and is examined in front of the sternocleidomastoid muscle, with the individual in the sitting position.
Before beginning the ultrasound imaging, individuals rest quietly for at least 15 minutes. Carotid total wall thickness and the thickness of the individual artery layers are assessed noninvasively using high-resolution ultrasonographic equipment (Osteoson® Minhorst GmbH, Meudt, Germany), fitted with a broad-banded probe with 25 MHz center frequency. The method is validated for the estimation of total artery wall thickness and media layer thickness in non-atherosclerotic superficial arteries in pigs. Briefly, the scan converter enables the image to be frozen at a selected scan-time (2 sec) and the unit permits two-dimensional data acquisition, presenting the results as scans A and B. About 128 lines of echo data are detected as an A-echo signal, sampled by an eight-bit analog-to-digital converter, converted by scanning to a rectangular format and viewed as B-mode images on a 32-colour scale monitor. Image resolution as defined by the product manual is approximately 0.07 mm axially along the ultrasonographic beam and the depth of focus is in the range of 13.5 to 14.5 mm in front of the tip of the probe. The system recognizes objects of about 0.015 mm in size, and the software-driven cursors permit a minimal digital display of 0.02 mm.
The left common carotid artery (LCCA) is examined at the point of the strongest pulse, in front of the sternocleidomastoid muscle, with the individuals sitting in an upright position and looking straight ahead. The three-layer image show the pulsating artery near wall and the artery lumen. Ten B scans (point estimates) are carried out and measurements of the thickness of the whole arterial wall and its layers are performed off-line. Means of the ten measurements are calculated and used in the analysis. The total thickness of the carotid wall is measured from the leading edge of the adventitia to the far edge of the intima. Measurements of the adventitia and intima are made using only the brightest echoes from leading edge to far edge, and the thickness of the media layer is measured as the distance between the two brightest echoes. The coefficient of variation (CV %), calculated from double estimates (based on the mean of 5 measurements each) in 20 subjects, is about 2.4% for total carotid wall thickness, about 4.2% for media thickness and about 8% for intima thickness. The values for artery wall layer given in this study are mean values based on 10 or more measurements. All ultrasonographic assessments are performed by the same investigator, who is blinded to the clinical data of the study subjects.

[2] = Femoral artery wall layer thickness by non-invasive high-frequency ultrasound, postmenopausal estrogen users vs age-matched nonusers; assay type: in vivo, women
[3] = estrogen users vs age-matched nonusers
[4] = estrogen users vs age-matched nonusers, pair-wise
[5] = postmenopausal estrogen users (n = 17), mean ± SD

Substance: Estrogen
- Intima thickness, % difference [1, 3]: −25%
- Intima/Media ratio, % difference [1, 3]: −54%
- Media thickness, % difference [1, 3]: +74%
- Thickness of Intima + Media, % difference [1, 3]: +43%
- Total wall thickness, % difference [1, 3]: +35%
- Intima thickness, Mean difference ± SD [1, 4]: −0.033 ± 0.04 mm
- Intima/Media ratio, Mean difference ± SD [1, 4]: −0.25 ± 0.15
- Media thickness, Mean difference ± SD [1, 4]: 0.26 ± 0.22 mm
- Thickness of Intima + Media, Mean difference ± SD [1, 4]: 0.22 ± 0.23 mm
- Total wall thickness, Mean difference ± SD [1, 4]: 0.23 ± 0.23 mm
- Intima thickness [1, 5]: 0.12 ± 0.02 mm
- Intima/Media ratio [1, 5]: 0.21 ± 0.0629^a
- Media thickness [1, 5]: 0.61 ± 0.19 mm
- Thickness of Intima + Media [1, 5]: 0.73 ± 0.19 mm
- Total wall thickness [1, 5]: 0.84 ± 0.19 mm
- Intima thickness, % difference [2, 3]: −23%
- Intima/Media ratio, % difference [2, 3]: −50%
- Media thickness, % difference [2, 3]: +51%
- Thickness of Intima + Media, % difference [2, 3]: +38%
- Total wall thickness, % difference [2, 3]: +25%
- Intima thickness, Mean difference ± SD [2, 4]: −0.030 ± 0.04 mm
- Intima/Media ratio, Mean difference ± SD [2, 4]: −0.14 ± 0.13
- Media thickness, Mean difference ± SD [2, 4]: 0.27 ± 0.30 mm
- Thickness of Intima + Media, Mean difference ± SD [2, 4]: 0.24 ± 0.33 mm
- Total wall thickness, Mean difference ± SD [2, 4]: 0.18 ± 0.40 mm
- Intima thickness [2, 5]: 0.095 ± 0.02 mm
- Intima/Media ratio [2, 5]: 0.14 ± 0.06^0.055
- Media thickness [2, 5]: 0.77 ± 0.29^a mm
- Thickness of Intima + Media [2, 5]: 0.87 ± 0.30^a mm
- Total wall thickness [2, 5]: 0.91 ± 0.37^b mm
